Row | melting point [°C] | SMILES
1 | 213 to 216 | Cc1ccc(C)c(C(=O)Nc2ccc(C(=O)N3Cc4ccccc4Cc4ccccc43)cc2)c1
2 | 123 to 124 | CCc1c(N)nc(-c2ccc(C(F)(F)F)cc2)nc1C(=O)OC
3 | 113 to 116 | CC(=O)N1CCC(C(=O)c2nccn2CCc2ccccc2)CC1
4 | 190 to 191 | CSCC1Cn2cc(C(=O)NCc3ccc(Cl)cc3)c(=O)c3cc(CN4CCOCC4)cc(c32)O1 (stereo not given)
5 | 217 to 219 | COc1ccc(C=CC(=O)C2C(=O)C=C(C)OC2=O)cc1O (stereo not given)
6 | 194 to 195 | COc1ccc(CS(=O)(=O)c2cc3ccccc3oc2=O)cc1
7 | 122 to 124 | COc1ccc(Cn2nnc(-c3cccc(C(=O)Cl)c3)n2)cc1
8 | 129 to 130 | COCOc1cc(OCOC)cc(C(=O)O)c1
9 | 73 to 74 | Nc1ccc(CCc2nnco2)cc1
10 | 128 | CCCc1nc(Br)c(C(=O)O)n1Cc1ccc(-c2ccccc2S(=O)(=O)NC(=O)NCc2ccccc2)cc1
11 | 112 to 113 | N#CCCn1cnc([N+](=O)[O-])c1
12 | 184 to 186 | [N-]=[N+]=Nc1cnn(-c2cc(-c3ccnc(Nc4cccc(Cl)c4)n3)ccn2)c(=O)c1Cl
13 | 166 to 168 | O=C(O)C(CSc1ncccn1)CS(=O)(=O)c1ccc(-c2ccc(Cl)cc2)cc1 (stereo not given)
14 | 262 to 263 | Cc1cnn(Cc2ccc3c(c2)-c2[nH]nc(-c4ccsc4)c2C3)c1
15 | 105 to 106 | O=[N+]([O-])C=C(Cl)SCCCNS(=O)(=O)c1ccccc1
16 | 212 to 213 | NC(=NO)c1ncn2c1nc(N1CCOCC1)c1ccccc12
17 | 187 to 189 | CC(C)(C)c1nc(C=O)nc(C(C)(C)C)c1O
18 | 112 | CN1CCc2cc(CO)sc2C(c2ccccc2)C1 (stereo not given)
19 | 190 to 192 | Nc1c(CC(=O)O)cccc1Nc1ccc(Cl)cc1
20 | 174 to 175 | CC1(C)Oc2ccc(C#N)cc2[C@@H](NC(=O)c2cscc2-n2cccc2)[C@@H]1O

Row | melting point [°C] | SMILES
21 | 87 to 88 | COC(=O)CCc1conc1-c1ccc(Cl)c(Cl)c1
22 | 99 to 102 | CC(C)C[C@H](CC(=O)NC1CCCCC1)C(=O)OCc1ccccc1
23 | 144 to 146 | CCCCCCCCCCOc1ccc2c(c1CCC)OC(CCC(=O)O)(CCC(=O)O)CC2=O
24 | 167 to 169 | O=P1(C2CCCCC2)c2ccccc2CN1c1ccccc1 (stereo not given)
25 | 151 to 152 | COCC(C)N1Cc2c(NC(=O)c3ccc(F)c(C(F)(F)F)c3)cccc2C1=O (stereo not given)
26 | 83 to 84 | CCCCCCC(Nc1ccccc1)=C1C(=O)ON=C1C
27 | 186 | CC1(C)NC(=O)c2ccccc2N1CCCN1CCC(C(=O)c2ccc(F)cc2)CC1
28 | 275 to 277 | COc1cc2ccc3c4cc5c(cc4cnc3c2cc1OC)OCO5
29 | 46 to 48 | CCCCCCCCCCCCCCOc1ccc(C(=O)N(Cc2cccnc2)C(C)=O)cc1
30 | 111 to 114 | COC(=O)c1ccc(N=Cc2cccc(F)c2)cn1
31 | 212 to 213 | O=c1c2cccnc2n(-c2cccc([N+](=O)[O-])c2)c(=O)n1CCO
32 | 156 to 157 | Cc1cc(C)n2ncc([N+](=O)[O-])c2n1
33 | 186 | CC(C(=O)NC1=NCCS1)c1ccc(C(=O)c2cccs2)cc1 (stereo not given)
34 | 155 to 156 | S=C(NN=Cc1cccc(-c2ccc(Cl)cc2Cl)n1)NN1CCCC1
35 | 199 to 201 | COc1ccc(C(=O)c2ccc(OCc3nc(-c4ccccc4)oc3C)cc2)c(OC2(C(=O)O)CCC2)c1
36 | 165 to 167 | Cc1cc(C)nc(NC(=NO)NS(=O)(=O)c2ccccc2Cl)n1
37 | 100 to 103 | CNc1ncnc2c1ncn2C1CC(F)C(CO)O1 (stereo not given)
38 | 114 to 117 | Cc1cc(-c2cccc(C(F)(F)F)c2)c2ncc(OCC(F)(F)F)nc2c1
39 | 136 to 137 | CNCCNc1noc2cc(OC)ccc12

Row | SMILES | melting point [°C]
40 | CC1(c2ccccc2)SC(=S)N(Nc2ccccc2)C1=NOC(=O)Nc1ccc(Cl)c(Cl)c1 (stereo not given) | 95 to 96
